This note sets out measurements from patent publication US20170027955A1, “EXPRESSION LEVELS OF BCL-XL, BCL2, BCL-W, AND BAD AND CANCER THERAPIES” (Constellation Pharmaceuticals, Inc., priority 2014, published 2017).

One test has as its system AMO-1 cell line. Kind of test: Sub-G1 (apoptosis) and G0/G1 (G1 arrest) DNA content after 4 days of treatment, flow cytometry. The format is cell-based. The procedure:
(§1) Approximately 60 hematological cancer cell lines were profiled, with representative numbers of leukemia, multiple myeloma/plasmacytoma, and lymphoma cell lines. Cells were grown in the presence of BET inhibitors, (9), (10), and (11), for 4 days. Viability was measured using a fluorescent dye (resazurin, Sigma) that measures mitochondrial fitness as a proxy for cell number. Raw fluorescence values at each compound concentration were normalized to the values in the absence of compound, and percentage growth was plotted to determine the concentration of compound at which 50% growth inhibition was achieved (GI50). Cells were then fixed and stained with propidium iodide for flow cytometric determination of cell cycle distribution. The percentage of cells with less than G0/G1 DNA content (% subG1) was used as a measurement of apoptosis. The percentage of viable cells (non-subG1 cells) with G0/G1 DNA content was measured, and the % GI for control cells was subtracted from the % GI at each compound concentration to calculate a percentage increase in G1.
The bottom panels show the dose dependent increase in the percentage of cells with sub-G1 DNA content (apoptosis) and G0/G1 DNA content (G1 arrest) in response to 4 days of treatment with the same BET inhibitors in the AMO-1 cell line.

Test [1] concerns panel of 245 cell lines of varying lineages. Briefly: Viability of a panel of 245 cell lines treated with BET inhibitor for 3 or 4 d (Cell Titer Glo or resazurin). It is filed as cell-based. The procedure:
In order to identify predictive biomarkers for phenotypic response to BET inhibition, viability data was obtained for a panel of cell lines for which gene expression data are available. A panel of 245 cell lines of varying lineages (FIG. 7) was treated with the BET bromodomain inhibitor (9) for 3 or 4 d. Viability was assessed using either Cell Titer Glo (Promega) or resazurin (Sigma). GI50 values were determined as the concentration of inhibitor that caused viability to be reduced by 50% relative to the vehicle-treated control cells. Cell lines were defined as “sensitive” if GI50 values were at or below 0.25 μM, and as “insensitive” if GI50 values were above 0.25 μM. […] Where multiple probe sets were available for a given gene, the probe set that hybridized to all transcript variants and gave the largest standard deviation across the panel of cell lines was chosen. Based on the correlations shown in FIGS. 8 and 9, cell lines expressing high levels of BCL2 were defined as those expressing an RMA value of BCL2 within the top 33% of all 245 cell lines. Similarly, cell lines expressing low levels of BCL2L1, BCL2L2, and BAD were defined as those expressing RMA values of these genes within the bottom 33% of all cell lines. […] Further enrichment was obtained by combining criteria, with the highest enrichment obtained by selecting for cell lines with high expression of BCL2 and low expression of BCL2L1 (65%±7% response rate) or high expression of BCL2 and low expression of BAD (75%±6% response rate) (FIG. 11). Similar enrichment of responsive cell lines is obtained when cell lines of hematologic origin are considered separately from those of solid tumor origin (FIG. 12-15).
For orientation: ATP-based viability assays read luminescence as a measure of living cells.

Another test has as its system A375 cells. Kind of test: Growth inhibition (GI50) of A375 cells by BET inhibitor. The format is cell-based, human. The procedure: as §1
The human melanoma cell line A375 is phenotypically sensitive to BET inhibition, with a GI50 of 0.10 μM for (9) (FIG. 3, top panel). To understand possible mechanisms of acquired and de novo resistance to BET inhibition, A375 cells were grown in the presence of 1 μM of (9) for approximately 90 days. […]

The test system of another test is NOMO-1 cells. Kind of test: BETi-resistant NOMO-1 AML cells: proliferation and viability. It is filed as cell-based. Here is the method:
A BETi-resistant acute myeloid leukemia (AML) cell line was prepared. NOMO-1 cells were treated with increasing concentrations of (9), and when the population consisted of less than 80% live cells, viable cells were enriched by spinning over Ficoll-Paque (GE Healthcare). At the end of this procedure cells were able to proliferate in the presence of 1 μM (9), and were maintained at this dose, which is about 30-fold higher than their original GI50 (FIG. 6A). The ideal growth conditions for the BETi-tolerant cells appeared to be in the presence of ˜0.1 μM (9). While parental cells induced a robust apoptotic response in response to BETi, resistant cells grown in the presence of BETi only underwent apoptosis when the inhibitor was completely removed (FIG. 6B).
(See e.g., Fernald and Kurokawa. Evading Apoptosis in Cancer. Trends Cell Biol. 2013 December; 23(12): 620-633.) Expression of the pro-apoptotic gene BCL2L11 (encoding BIM) was increased in parental cells upon treatment with BETi (FIG. 6C). The relative expression ratio of BCL2L11/BCL2 correlated with the apoptotic response in parental cells (FIG. 6D). In the resistant cells cultured in the presence of (9), high levels of BIM were maintained (FIG. 6C). […]

In test [2] the test system is BET inhibitor resistant A375 cells. Kind of test: Co-treatment of BET inhibitor resistant A375 cells with (9) and ABT-737 for 11 days. It is filed as cell-based, human. Conditions: resistant A375 cells co-treated with 1 μM (9) and increasing concentrations of ABT-737, 11 days. Here is the method:
BCL-xL is targeted by several commercially available BCL-2 family small molecule inhibitors (Billard, C. et al. BH3 mimetics: status of the field and new developments. Mol Cancer Ther. 2013 September; 12(9):1691-700). To test whether pharmacological inhibition of BCL-xL would restore sensitivity to BET inhibition in BET inhibitor resistant A375 cells, parental and resistant cells were co-treated with 1 μM (9) or DMSO and increasing concentrations of the pan-BCL2 inhibitor ABT-737 for 11 days (Ottersdorf, T., et al. An inhibitor of Bcl-2 family proteins induces regression of solid tumours. Nature. 2005 Jun. 2; 435(7042):677-81).

The term GI50 denotes the concentration that inhibits growth by half. With `Cc1sc2c(c1C)C(c1ccc(Cl)cc1)=N[C@@H](CC(N)=O)c1nnc(C)n1-2` [(9)], the “maximal response (% sub-G1 and G0/G1 DNA content)” value with AMO-1 cell line is listed as “equivalent”. In test [1] (all 245 cell lines), the “overall response rate (fraction of cell lines with GI50 equal to or less than 0.25 μM)” value was found to be 28%. Moreover, the “response rate (fraction of cell lines with GI50 equal to or less than 0.25 μM)” value in test [1] (cell lines with high expression of BCL2 and low expression of BAD) was 75%±6%; in test [1] (cell lines with high expression of BCL2 and low expression of BCL2L1), 65%±7%. Moreover, the “shift in GI50 of resistant clones relative to parental cells” value in the test on A375 cells (A375 clones grown in 1 μM (9) for approximately 90 days, after 11 days) is reported as “relatively modest shift in GI50”. The GI50 with A375 cells (A-375, parental human melanoma cell line A375) came to 0.1 µM. Besides, in the test on NOMO-1 cells (BETi-resistant NOMO-1 cells proliferating in 1 μM (9)), the “maintenance concentration of resistant cells (1 μM) relative to original GI50” value was “about 30 fold”.
Regarding `Cc1noc2c1-c1ccccc1C(c1ccc(Cl)cc1)=N[C@H]2CC(N)=O` [(10)], the “maximal response (% sub-G1 and G0/G1 DNA content)” value in the test with AMO-1 cell line is on record as “equivalent”.
Same read-out and setting: next, `Cc1noc2c1-c1ccc(-c3cnn(C)c3)cc1C(c1ccc(Cl)cc1)=N[C@H]2CC(N)=O` [(11)]: “equivalent”.
Take `CC1(C)CCC(CN2CCN(c3ccc(C(=O)NS(=O)(=O)c4ccc(NCC5CCOCC5)c([N+](=O)[O-])c4)c(Oc4cnc5[nH]ccc5c4)c3)CC2)=C(c2ccc(Cl)cc2)C1` [ABT-199, reference compound]: the “phenotypic sensitivity of resistant cells to BCL2 inhibitor” value in the test with NOMO-1 cells (resistant NOMO-1 cells, FIG. 6f) is “increased phenotypic sensitivity”.
Regarding `CN(C)CC[C@H](CSc1ccccc1)Nc1ccc(S(=O)(=O)NC(=O)c2ccc(N3CCN(Cc4ccccc4-c4ccc(Cl)cc4)CC3)cc2)cc1[N+](=O)[O-]` [ABT-737], in test [2], the “restoration of sensitivity to (9)” value is recorded as “restores sensitivity to (9) in a dose-dependent manner”.
